The values that follow come from ChEMBL document CHEMBL1149970, “Novel dithiocarbamate carbapenems1 with anti-MRSA activity” (Bioorg Med Chem Lett, 1997).

What all share (format): functional
One assay deals with Pseudomonas aeruginosa. As to the kind of experiment: In vitro antibacterial activity against Pseudomonas aeruginosa MB5002 organism.
Assay [1] relates to Staphylococcus aureus. As to the kind of experiment: In vitro antibacterial activity against staphylococcus aureus CSa1009 (Methicillin-resistant strain and b beta-Lactamase producing strain).
The test system of a further assay is Enterococcus faecalis. The assay can be described thus: In vitro antibacterial activity against Enterococcus faecalis MB4996 organism.
Assay [2] relates to Staphylococcus epidermidis. The assay can be described thus: In vitro antibacterial activity against Staphylococcus epidermidis MB5181a organism.
Assay [3] addresses T1, Dipeptidase 1 (Sus scrofa) (UniProt P22412).
T1 sequence (whole entry): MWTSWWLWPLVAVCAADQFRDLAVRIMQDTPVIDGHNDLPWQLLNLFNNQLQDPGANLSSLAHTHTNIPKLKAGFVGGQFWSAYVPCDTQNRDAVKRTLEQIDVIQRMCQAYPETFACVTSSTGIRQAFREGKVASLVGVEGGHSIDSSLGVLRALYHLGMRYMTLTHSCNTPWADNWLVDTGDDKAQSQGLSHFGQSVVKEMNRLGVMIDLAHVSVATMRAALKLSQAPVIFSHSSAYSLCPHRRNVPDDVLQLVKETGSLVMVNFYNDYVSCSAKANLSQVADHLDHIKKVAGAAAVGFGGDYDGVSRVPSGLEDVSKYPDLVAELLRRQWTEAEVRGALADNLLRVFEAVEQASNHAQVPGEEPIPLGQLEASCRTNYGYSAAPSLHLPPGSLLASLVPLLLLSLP
The assay can be described thus: Relative rate of hydrolysis of porcine renal dehydropeptidase-I (DHP-I) to imipenem.

For assay [4], the system named is Staphylococcus aureus. As to the kind of experiment: In vitro antibacterial activity against staphylococcus aureus BB6294 organism (Methicillin-resistant strain).
The subject of assay [5] is Staphylococcus aureus. As to the kind of experiment: In vitro antibacterial activity against staphylococcus aureus 209P NIHJ JC1 organism.
The test system of a further assay is Escherichia coli. As to the kind of experiment: In vitro antibacterial activity against Escherichia coli NIHJ JC2 organism.
The mark [6] stands for this setting: Staphylococcus epidermidis, read-out: MIC.

In brackets after ≈: the same amount, converted by molar mass. Some results are limits rather than exact numbers.

In the case of `CCCN(C)C(=S)SC1=C(C(=O)O)N2C(=O)[C@H]([C@@H](C)O)[C@H]2[C@H]1C`, the MIC in the assay on Pseudomonas aeruginosa was found to be 25 µg/mL (≈ 69.7 µM); with Staphylococcus aureus [1], 3.13 µg/mL (≈ 8.73 µM); in the assay on Enterococcus faecalis, 6.25 µg/mL (≈ 17.4 µM); in assay [2] (setting [6]), 3.13 µg/mL (≈ 8.73 µM); in the assay with Staphylococcus aureus [4] it was 3.13 µg/mL (≈ 8.73 µM); against Staphylococcus aureus [5], 0.025 µg/mL (≈ 0.0697 µM). In addition, the MIC against Escherichia coli is 25 µg/mL (≈ 69.7 µM). Also, the DHP-I susceptibility in assay [3] was 2.71.
Turning to `C[C@@H](O)[C@H]1C(=O)N2C(C(=O)O)=C(SC(=S)N3CCC(O)C3)[C@H](C)[C@H]12` (some centres undefined), the MIC in the assay with Pseudomonas aeruginosa is above 25 µg/mL; with Staphylococcus aureus [1], 6.25 µg/mL (≈ 16.8 µM); against Enterococcus faecalis, 6.25 µg/mL (≈ 16.8 µM); in assay [2] (setting [6]), 3.13 µg/mL (≈ 8.4 µM); with Staphylococcus aureus [4], 6.25 µg/mL (≈ 16.8 µM); in the assay with Staphylococcus aureus [5], 0.025 µg/mL (≈ 0.0671 µM). The molecule also gave an MIC in the assay with Escherichia coli of 0.78 µg/mL (≈ 2.09 µM). Besides, the DHP-I susceptibility in assay [3] amounted to 2.21.
Regarding `C[C@@H](O)[C@H]1C(=O)N2C(C(=O)O)=C(SC(=S)N3CCCCC3)[C@H](C)[C@H]12`, the MIC was above 25 µg/mL in the assay with Pseudomonas aeruginosa; 3.13 µg/mL (≈ 8.45 µM) against Staphylococcus aureus [1]; 6.25 µg/mL (≈ 16.9 µM) against Enterococcus faecalis; 3.13 µg/mL (≈ 8.45 µM) in assay [2] (setting [6]); 1.56 µg/mL (≈ 4.21 µM) with Staphylococcus aureus [4]; 0.025 µg/mL (≈ 0.0675 µM) against Staphylococcus aureus [5]. Besides, in the assay with Escherichia coli, the MIC was found to be 25 µg/mL (≈ 67.5 µM). The same molecule displayed a DHP-I susceptibility in assay [3] of 3.1.
As for `CCN(CCO)C(=S)SC1=C(C(=O)O)N2C(=O)[C@H]([C@@H](C)O)[C@H]2[C@H]1C`, the MIC is above 25 µg/mL in the assay with Pseudomonas aeruginosa; 6.25 µg/mL (≈ 16.7 µM) in the assay with Staphylococcus aureus [1]; 6.25 µg/mL (≈ 16.7 µM) against Enterococcus faecalis; 3.13 µg/mL (≈ 8.36 µM) in assay [2] (setting [6]); 6.25 µg/mL (≈ 16.7 µM) against Staphylococcus aureus [4]; 0.025 µg/mL (≈ 0.0668 µM) in the assay on Staphylococcus aureus [5]. The MIC against Escherichia coli was 6.25 µg/mL (≈ 16.7 µM). For the same molecule, the DHP-I susceptibility in assay [3] is 2.38.
Turning to `C[C@@H](O)[C@H]1C(=O)N2C(C(=O)O)=C(SC(=S)N3CCC3)[C@H](C)[C@H]12`, the MIC is above 25 µg/mL with Pseudomonas aeruginosa; 6.25 µg/mL (≈ 18.3 µM) against Staphylococcus aureus [1]; 6.25 µg/mL (≈ 18.3 µM) against Enterococcus faecalis; 6.25 µg/mL (≈ 18.3 µM) in assay [2] (setting [6]); 3.13 µg/mL (≈ 9.14 µM) in the assay with Staphylococcus aureus [4]; 0.025 µg/mL (≈ 0.073 µM) in the assay on Staphylococcus aureus [5]. This molecule also yielded an MIC with Escherichia coli of 3.13 µg/mL (≈ 9.14 µM). The molecule further had a DHP-I susceptibility in assay [3] of 3.03.
As to `C[C@@H](O)[C@H]1C(=O)N2C(C(=O)O)=C(SC(=S)N3CCCCCC3)[C@H](C)[C@H]12`, the MIC in the assay with Pseudomonas aeruginosa was above 25 µg/mL; in the assay with Staphylococcus aureus [1] it was 1.56 µg/mL (≈ 4.06 µM); in the assay on Enterococcus faecalis it was 6.25 µg/mL (≈ 16.3 µM); in assay [2] (setting [6]) it was 1.56 µg/mL (≈ 4.06 µM); with Staphylococcus aureus [4], 1.56 µg/mL (≈ 4.06 µM); in the assay on Staphylococcus aureus [5] it was 0.012 µg/mL (≈ 0.0312 µM). This molecule yielded an MIC in the assay with Escherichia coli above 25 µg/mL. The same molecule returned a DHP-I susceptibility in assay [3] of 3.09.
With `C=CCN(CCCO)C(=S)SC1=C(C(=O)O)N2C(=O)[C@H]([C@@H](C)O)[C@H]2[C@H]1C`, the MIC was above 25 µg/mL in the assay on Pseudomonas aeruginosa; 3.13 µg/mL (≈ 7.81 µM) in the assay with Staphylococcus aureus [1]; 6.25 µg/mL (≈ 15.6 µM) against Enterococcus faecalis; 3.13 pug ml-1 in assay [2]; 3.13 µg/mL (≈ 7.81 µM) with Staphylococcus aureus [4]; 0.025 µg/mL (≈ 0.0624 µM) with Staphylococcus aureus [5]. For the same molecule, the MIC against Escherichia coli turned out to be 12.5 µg/mL (≈ 31.2 µM). The DHP-I susceptibility in assay [3] was 1.39.
Turning to `CCN(CC)C(=S)SC1=C(C(=O)O)N2C(=O)[C@H]([C@@H](C)O)[C@H]2[C@H]1C`, the MIC came to 25 µg/mL (≈ 69.7 µM) with Pseudomonas aeruginosa; 3.13 µg/mL (≈ 8.73 µM) with Staphylococcus aureus [1]; 12.5 µg/mL (≈ 34.9 µM) against Enterococcus faecalis; 3.13 µg/mL (≈ 8.73 µM) in assay [2] (setting [6]); 3.13 µg/mL (≈ 8.73 µM) with Staphylococcus aureus [4]; 0.025 µg/mL (≈ 0.0697 µM) in the assay with Staphylococcus aureus [5]. For the same molecule, the MIC in the assay on Escherichia coli stood at 25 µg/mL (≈ 69.7 µM). In assay [3], this molecule displayed a DHP-I susceptibility of 2.51.
In the case of `C[C@@H](O)[C@H]1C(=O)N2C(C(=O)O)=C(SC(=S)N3CCCC3)C[C@H]12`, the MIC in the assay on Staphylococcus aureus [1] is 25 µg/mL (≈ 73 µM); in assay [2] (setting [6]) it was 12.5 µg/mL (≈ 36.5 µM); in the assay with Staphylococcus aureus [4], 6.25 µg/mL (≈ 18.3 µM); in the assay with Staphylococcus aureus [5], 0.025 µg/mL (≈ 0.073 µM). Further, in assay [3], the DHP-I susceptibility is 11.7.
As for `C[C@@H](O)[C@H]1C(=O)N2C(C(=O)O)=C(SC(=O)N3CCCC3)[C@H](C)[C@H]12`, the MIC in the assay on Staphylococcus aureus [1] turned out to be 25 µg/mL (≈ 73.4 µM); in assay [2] (setting [6]), 25 µg/mL (≈ 73.4 µM); against Staphylococcus aureus [4], 25 µg/mL (≈ 73.4 µM); with Staphylococcus aureus [5] it was 0.05 µg/mL (≈ 0.147 µM). In addition, in assay [3], the DHP-I susceptibility was 0.65.
